Source: US20180153995A1, “USE OF ANTIMICROBIAL POLYMERS FOR RE-SENSITIZATION OF MICROORGANISMS UPON EMERGENCE OF RESISTANCE TO ANTI-MICROBIAL AGENTS” (Technion Research & Development Foundation Limited, priority 2008, published 2018)
Like-named read-outs stand apart in the source and are kept apart here.

Experiments:
[1] = tested on: E. coli 16327; experiment: microbe, parasite or virus in culture
[2] = tested on: E. coli 16329; assay type: cell-based, Escherichia coli; settings: E. coli U-16329
Experimental: (§1) MICs were determined by microdilution susceptibility testing in 96-well plates (by Nunc) using inocula of 10^5 bacteria per ml. Cell populations were evaluated by optical density measurements at 620 nm and were calibrated against a set of standards. Hundred (100) μl of a bacterial suspension were added to 100 μl of culture medium (control) or to 100 μl of culture medium containing various polymer concentrations in 2-fold serial dilutions. Inhibition of proliferation was determined by optical density measurements at 620 nm after an incubation period of 24 hours at 37° C.
(§2) 100 μl of a bacterial suspension were added to 100 μl of culture medium (control) or to 100 μl of culture medium containing various antibiotic and C14(9-ene)KKNC12KNH2 (SEQ ID NO: 5) concentrations in 2-fold serial dilutions. Inhibition of proliferation was determined by optical density measurements at 620 nm after an incubation period of 24 hours at 37° C.

[3] = tested on: E. coli K-12 efflux knockout mutant; assay type: cell-based, Escherichia coli; settings: E. coli AG100A (efflux−)
Experimental: as §1

[4] = tested on: MRSA 15903; experiment: microbe, parasite or virus in culture; assay type: cell-based, Staphylococcus aureus
Outline: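 Two-agent combinations tested against MRSA 15903; FIC index = A/MICA + B/MICB, using MICs in combination versus alone. Below 0.5 read as clear re-sensitizing, 0.5–4 marginal or null, above 4 antagonism.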

[5] = tested on: E. coli K-12 resistant wild type; assay type: cell-based, Escherichia coli; settings: E. coli AG100 (w.t.)
[6] = tested on: S. maltophila 748; experiment: Antibiotic MIC by microdilution with or without sub-MIC polymer; assay type: cell-based, Stenotrophomonas maltophila
[7] = tested on: E. coli 14182; experiment: as above; assay type: cell-based, Escherichia coli
[8] = tested on: S. aureus 15877; experiment: as above; assay type: cell-based, Staphylococcus aureus
[9] = tested on: E. coli 14384; experiment: as above; assay type: cell-based, Escherichia coli; settings: E. coli 14384
Experimental: as §1, §2

[10] = tested on: S. aureus 17314; experiment: as above; assay type: cell-based, Staphylococcus aureus; settings: S. aureus 17314
[11] = polymer at ½ of its MIC (Table 16)
[12] = the OAK at ½ of its MIC (Table 17)
[13] = +½ MIC (3.12 μM) C14(9-ene)KKNC12KNH2

CC[C@H]1OC(=O)[C@H](C)[C@@H](O[C@H]2C[C@@](C)(OC)[C@@H](O)[C@H](C)O2)[C@H](C)[C@@H](O[C@@H]2O[C@H](C)C[C@H](N(C)C)[C@H]2O)[C@](C)(O)C[C@@H](C)C(=O)[C@H](C)[C@@H](O)[C@]1(C)O [Erythromycin, erythromycin]
16 to 32 µg/mL: Antibiotic MIC in presence of C12K(NC8K)7NH2 (SEQ ID NO: 4), +⅓ MIC ([9]; polymer at ⅓ of its MIC)
2 µg/mL: Antibiotic MIC in presence of C12K(NC8K)7NH2 (SEQ ID NO: 4), +½ MIC [3, 11]
4 µg/mL: Antibiotic MIC in presence of the OAK, +⅓ MIC ([3]; the OAK at ⅓ of its MIC (Table 17))
0.1 µg/mL: MIC ([4]; S. aureus CI-15903, +polymer (½ MIC) C12(5-ene)KKNC12KNH2) | MIC ([4]; S. aureus CI-15903, +polymer (⅓ MIC) C12(5-ene)KKNC12KNH2)
512 µg/mL: Antibiotic MIC ([6]; +¼ MIC (1.6 μM) C12K(KNC12K)3NH2) | Antibiotic MIC ([6]; +⅓ MIC (2.1 μM) C12K(KNC12K)3NH2) | Antibiotic MIC ([6]; no polymer (None), Table 13)
0.5 µg/mL: MIC, ⅓ + MIC OAK ([4]; MRSA 15903, with C12K(KNC10K)3NH2 (SEQ ID NO: 10) at ⅓ of its MIC) | MIC ([4]; S. aureus CI-15903, +polymer (¼ MIC) C12(5-ene)KKNC12KNH2) | MIC ([4]; Staphylococcus aureus, MRSA, 24 h, MRSA 15903, antibiotic alone, read-out: MIC) | MIC ([4]; Staphylococcus aureus, MRSA, 24 h, S. aureus CI-15903, alone, read-out: MIC) | Antibiotic MIC ([10]; +½ MIC (3.12 μM) C16(9-ene)KKNC12KNH2)
1 µg/mL: MIC ([4]; MRSA 15903, +¼ polymer MIC (1.6 μM) NC12(KNC12K)2NH2) | MIC ([4]; Staphylococcus aureus, MRSA, 24 h, MRSA 15903, antibiotic alone (Table 22), read-out: MIC, Alone) | Antibiotic MIC ([10]; +¼ MIC (1.6 μM) C12K(KNC12K)2NH2) | Antibiotic MIC ([10]; +¼ MIC (1.6 μM) C12KKNC12KNH2) | Antibiotic MIC ([10]; +¼ MIC (1.6 μM) C14(9-ene)KKNC12KNH2) | Antibiotic MIC ([10]; +¼ MIC (1.6 μM) C16(9-ene)KKNC12KNH2) | Antibiotic MIC ([10]; +½ MIC (3.12 μM) C12KKNC12KNH2) | Antibiotic MIC [10, 13] | Antibiotic MIC ([10]; +⅓ MIC (2.1 μM) C12KKNC12KNH2) | Antibiotic MIC ([10]; +⅓ MIC (2.1 μM) C14(9-ene)KKNC12KNH2) | Antibiotic MIC ([10]; +⅓ MIC (2.1 μM) C16(9-ene)KKNC12KNH2) | Antibiotic MIC ([10]; no polymer (None), Table 9) | Antibiotic MIC ([10]; no polymer (None), Table 10) | Antibiotic MIC ([10]; no polymer (None), Table 11) | Antibiotic MIC ([10]; no polymer (None), Table 12)
2 to 4 µg/mL: Antibiotic MIC in presence of C12K(NC8K)7NH2 (SEQ ID NO: 4), +⅓ MIC ([3]; polymer at ⅓ of its MIC (Table 16))
>512 µg/mL: Antibiotic MIC ([8]; +¼ MIC (1.6 μM) C12(5-ene)KKNC12KNH2) | Antibiotic MIC ([8]; +½ MIC (3.12 μM) C12(5-ene)KKNC12KNH2) | Antibiotic MIC ([8]; +⅓ MIC (2.1 μM) C12(5-ene)KKNC12KNH2) | Antibiotic MIC ([8]; no polymer (None), Table 8)
0.13 to 0.25 µg/mL: MIC, ½ + MIC OAK ([4]; MRSA 15903, with C12K(KNC10K)3NH2 (SEQ ID NO: 10) at ½ of its MIC)
8 to 16 µg/mL: Antibiotic MIC in presence of C12K(NC8K)7NH2 (SEQ ID NO: 4), +½ MIC [5, 11] | Antibiotic MIC ([7]; +½ MIC C12K(NC8K)5NH2) | Antibiotic MIC in presence of C12K(NC8K)7NH2 (SEQ ID NO: 4), +½ MIC ([9]; polymer at ½ of its MIC)
32 µg/mL: Antibiotic MIC in presence of C12K(NC8K)7NH2 (SEQ ID NO: 4), +½ MIC ([1]; E. coli U-16327, polymer at ½ of its MIC) | Antibiotic MIC ([2]; +½ MIC C12K(NC8K)5NH2) | Antibiotic MIC in presence of C12K(NC8K)7NH2 (SEQ ID NO: 4), +¼ MIC ([7]; polymer at ¼ of its MIC) | Antibiotic MIC [9, 13] | Antibiotic MIC ([9]; +⅓ MIC C12K(NC8K)5NH2)
0.5 to 1 µg/mL: Antibiotic MIC ([10]; +½ MIC (3.12 μM) C12K(KNC12K)2NH2) | Antibiotic MIC ([10]; +⅓ MIC (2.1 μM) C12K(KNC12K)2NH2)
1 to 2 µg/mL: Antibiotic MIC in presence of the OAK, +½ MIC [3, 12]
8 µg/mL: MIC, ⅓ + MIC OAK ([1]; E. coli U16327, with C12K(KNC10K)3NH2 (SEQ ID NO: 10) at ⅓ of its MIC) | Antibiotic MIC in presence of C12K(NC8K)7NH2 (SEQ ID NO: 4), +½ MIC ([7]; polymer at ½ of its MIC)
16 µg/mL: Antibiotic MIC in presence of C12K(NC8K)7NH2 (SEQ ID NO: 4), +½ MIC ([2]; polymer at ½ of its MIC) | Antibiotic MIC in presence of the OAK, +½ MIC [5, 12] | Antibiotic MIC in presence of C12K(NC8K)7NH2 (SEQ ID NO: 4), +⅓ MIC ([7]; polymer at ⅓ of its MIC)
0.016 µg/mL: MIC ([4]; MRSA 15903, +½ polymer MIC (3.1 μM) NC12(KNC12K)2NH2)
4 to 8 µg/mL: MIC, ½ + MIC OAK ([1]; E. coli U16327, with C12K(KNC10K)3NH2 (SEQ ID NO: 10) at ½ of its MIC) | Antibiotic MIC, None ([3]; antibiotic alone (Table 16)) | Antibiotic MIC, None ([3]; antibiotic alone (Table 17)) | Antibiotic MIC in presence of C12K(NC8K)7NH2 (SEQ ID NO: 4), +¼ MIC ([3]; polymer at ¼ of its MIC (Table 16)) | Antibiotic MIC in presence of the OAK, +¼ MIC ([3]; the OAK at ¼ of its MIC (Table 17)) | Antibiotic MIC ([9]; +½ MIC C12K(NC8K)5NH2)
32 to 64 µg/mL: Antibiotic MIC ([7]; +⅓ MIC C12K(NC8K)5NH2) | Antibiotic MIC ([9]; +¼ MIC C12K(NC8K)5NH2)
